Laboratory results as given in the NIST ThermoML archive (doi:10.1021/acs.jced.5b00980).
± gives the expanded uncertainty stated by the source.

Assay: activity coefficient (dimensionless); of the first substance listed, at infinite dilution; xn = mol fraction of the nth substance listed
Details: 100 kPa, Liquid, Chromatography, x1 = 0

| Compound | activity coefficient (328.15 K) | activity coefficient (338.15 K) | activity coefficient (348.15 K) | activity coefficient (358.15 K) | activity coefficient (368.15 K) |
| --- | --- | --- | --- | --- | --- |
| CC(C)OC(C)C [diisopropyl ether] + CCCC[P+](CC)(CCCC)CCCC.CCOP(=O)([O-])OCC | 2.82 ± 0.19 | 2.75 ± 0.19 | 2.69 ± 0.18 | 2.65 ± 0.18 | 2.59 ± 0.18 |
| CC1CCCCC1 [methylcyclohexane] + CCCC[P+](CC)(CCCC)CCCC.CCOP(=O)([O-])OCC | 2.62 ± 0.18 | 2.57 ± 0.17 | 2.52 ± 0.17 | 2.48 ± 0.17 | 2.44 ± 0.17 |
| CCCCCCCCC [nonane] + CCCC[P+](CC)(CCCC)CCCC.CCOP(=O)([O-])OCC | 5.79 ± 0.39 | 5.6 ± 0.38 | 5.43 ± 0.37 | 5.27 ± 0.36 | 5.13 ± 0.35 |
| CCCCCCCC [octane] + CCCC[P+](CC)(CCCC)CCCC.CCOP(=O)([O-])OCC | 4.87 ± 0.33 | 4.74 ± 0.32 | 4.6 ± 0.31 | 4.47 ± 0.3 | 4.37 ± 0.3 |
| Cc1ccc(C)cc1 [1,4-dimethylbenzene] + CCCC[P+](CC)(CCCC)CCCC.CCOP(=O)([O-])OCC | 1.64 ± 0.11 | 1.61 ± 0.11 | 1.59 ± 0.11 | 1.57 ± 0.1 | 1.55 ± 0.1 |
| CCCCCC [hexane] + CCCC[P+](CC)(CCCC)CCCC.CCOP(=O)([O-])OCC | 3.4 ± 0.23 | 3.33 ± 0.23 | 3.26 ± 0.22 | 3.21 ± 0.22 | 3.15 ± 0.21 |
| CCCC(=O)CC [3-hexanone] + CCCC[P+](CC)(CCCC)CCCC.CCOP(=O)([O-])OCC | 1.23 ± 0.08 | 1.21 ± 0.08 | 1.21 ± 0.08 | 1.2 ± 0.08 | 1.2 ± 0.08 |
| Cc1ccccc1 [toluene] + CCCC[P+](CC)(CCCC)CCCC.CCOP(=O)([O-])OCC | 1.2 ± 0.08 | 1.19 ± 0.08 | 1.18 ± 0.08 | 1.16 ± 0.07 | 1.15 ± 0.07 |
| C1COCCO1 [1,4-dioxane] + CCCC[P+](CC)(CCCC)CCCC.CCOP(=O)([O-])OCC | 1.08 ± 0.07 | 1.06 ± 0.07 | 1.05 ± 0.07 | 1.03 ± 0.06 | 1.02 ± 0.06 |
| CCc1ccccc1 [ethylbenzene] + CCCC[P+](CC)(CCCC)CCCC.CCOP(=O)([O-])OCC | 1.55 ± 0.1 | 1.52 ± 0.1 | 1.49 ± 0.1 | 1.46 ± 0.1 | 1.44 ± 0.09 |
| C=CCCCCCCCC [1-decene] + CCCC[P+](CC)(CCCC)CCCC.CCOP(=O)([O-])OCC | 5.2 ± 0.35 | 5.06 ± 0.34 | 4.93 ± 0.34 | 4.81 ± 0.33 | 4.69 ± 0.32 |
| C1CCCCCCC1 [cyclooctane] + CCCC[P+](CC)(CCCC)CCCC.CCOP(=O)([O-])OCC | 2.82 ± 0.19 | 2.74 ± 0.19 | 2.69 ± 0.18 | 2.63 ± 0.18 | 2.57 ± 0.17 |
| O [water] + CCCC[P+](CC)(CCCC)CCCC.CCOP(=O)([O-])OCC | 0.101 ± 0.03 | 0.105 ± 0.03 | 0.109 ± 0.03 | 0.112 ± 0.03 | 0.116 ± 0.03 |
| C#CCCCC [1-hexyne] + CCCC[P+](CC)(CCCC)CCCC.CCOP(=O)([O-])OCC | 0.849 ± 0.054 | 0.893 ± 0.057 | 0.936 ± 0.059 | 0.979 ± 0.061 | 1.02 ± 0.06 |
| CCCCCCC [heptane] + CCCC[P+](CC)(CCCC)CCCC.CCOP(=O)([O-])OCC | 4.08 ± 0.28 | 3.97 ± 0.27 | 3.87 ± 0.26 | 3.78 ± 0.26 | 3.7 ± 0.25 |
| CCOC(C)(C)C [2-ethoxy-2-methylpropane] + CCCC[P+](CC)(CCCC)CCCC.CCOP(=O)([O-])OCC | 2.66 ± 0.18 | 2.6 ± 0.18 | 2.56 ± 0.17 | 2.51 ± 0.17 | 2.47 ± 0.17 |
| CCC[N+](=O)[O-] [1-nitropropane] + CCCC[P+](CC)(CCCC)CCCC.CCOP(=O)([O-])OCC | 0.499 ± 0.038 | 0.507 ± 0.038 | 0.515 ± 0.038 | 0.523 ± 0.039 | 0.53 ± 0.039 |
| c1ccncc1 [pyridine] + CCCC[P+](CC)(CCCC)CCCC.CCOP(=O)([O-])OCC | 0.544 ± 0.04 | 0.545 ± 0.04 | 0.548 ± 0.04 | 0.549 ± 0.04 | 0.55 ± 0.04 |
| c1ccsc1 [thiophene] + CCCC[P+](CC)(CCCC)CCCC.CCOP(=O)([O-])OCC | 0.58 ± 0.041 | 0.587 ± 0.042 | 0.595 ± 0.042 | 0.601 ± 0.042 | 0.607 ± 0.042 |
| COC(C)(C)C [2-methoxy-2-methylpropane] + CCCC[P+](CC)(CCCC)CCCC.CCOP(=O)([O-])OCC | 1.89 ± 0.13 | 1.86 ± 0.13 | 1.84 ± 0.12 | 1.82 ± 0.12 | 1.8 ± 0.12 |

| Compound | activity coefficient (328.15 K) | activity coefficient (338.15 K) | activity coefficient (348.15 K) | activity coefficient (358.15 K) | activity coefficient (368.15 K) |
| --- | --- | --- | --- | --- | --- |
| C1CCCCC1 [cyclohexane] + CCCC[P+](CC)(CCCC)CCCC.CCOP(=O)([O-])OCC | 2.17 ± 0.15 | 2.13 ± 0.14 | 2.09 ± 0.14 | 2.05 ± 0.14 | 2.01 ± 0.14 |
| CCO [ethanol] + CCCC[P+](CC)(CCCC)CCCC.CCOP(=O)([O-])OCC | – | 0.035 | 0.038 | 0.042 | 0.045 |
| CCCCCCCCCC [decane] + CCCC[P+](CC)(CCCC)CCCC.CCOP(=O)([O-])OCC | 7.01 ± 0.48 | 6.74 ± 0.46 | 6.49 ± 0.44 | 6.26 ± 0.43 | 6.05 ± 0.41 |
| CCC(C)(C)OC [2-methoxy-2-methylbutane] + CCCC[P+](CC)(CCCC)CCCC.CCOP(=O)([O-])OCC | 2.09 ± 0.14 | 2.07 ± 0.14 | 2.05 ± 0.14 | 2.02 ± 0.14 | 2.01 ± 0.14 |
| CC(C)CC(C)(C)C [2,2,4-trimethylpentane] + CCCC[P+](CC)(CCCC)CCCC.CCOP(=O)([O-])OCC | 4.38 ± 0.3 | 4.25 ± 0.29 | 4.15 ± 0.28 | 4.05 ± 0.28 | 3.97 ± 0.27 |
| CCCC(C)=O [pentan-2-one] + CCCC[P+](CC)(CCCC)CCCC.CCOP(=O)([O-])OCC | 1.03 ± 0.06 | 1.03 ± 0.06 | 1.02 ± 0.06 | 1.02 ± 0.06 | 1.01 ± 0.06 |
| CCC(C)CC [3-methylpentane] + CCCC[P+](CC)(CCCC)CCCC.CCOP(=O)([O-])OCC | 3.17 ± 0.22 | 3.12 ± 0.21 | 3.07 ± 0.21 | 3.02 ± 0.21 | 2.98 ± 0.2 |
| C1CCCC1 [cyclopentane] + CCCC[P+](CC)(CCCC)CCCC.CCOP(=O)([O-])OCC | 1.83 ± 0.12 | 1.8 ± 0.12 | 1.77 ± 0.12 | 1.74 ± 0.12 | 1.71 ± 0.11 |
| c1ccccc1 [benzene] + CCCC[P+](CC)(CCCC)CCCC.CCOP(=O)([O-])OCC | 0.871 ± 0.056 | 0.863 ± 0.055 | 0.855 ± 0.055 | 0.847 ± 0.054 | 0.84 ± 0.054 |
| C=CCCCCC [1-heptene] + CCCC[P+](CC)(CCCC)CCCC.CCOP(=O)([O-])OCC | 3.06 ± 0.21 | 3.01 ± 0.2 | 2.97 ± 0.2 | 2.93 ± 0.2 | 2.89 ± 0.2 |
| CCCCC [pentane] + CCCC[P+](CC)(CCCC)CCCC.CCOP(=O)([O-])OCC | 2.91 ± 0.2 | 2.85 ± 0.19 | 2.8 ± 0.19 | 2.75 ± 0.19 | 2.7 ± 0.18 |
| Cc1cccc(C)c1 [1,3-dimethylbenzene] + CCCC[P+](CC)(CCCC)CCCC.CCOP(=O)([O-])OCC | 1.7 ± 0.11 | 1.67 ± 0.11 | 1.64 ± 0.11 | 1.61 ± 0.11 | 1.59 ± 0.11 |
| CCCCC(C)=O [2-hexanone] + CCCC[P+](CC)(CCCC)CCCC.CCOP(=O)([O-])OCC | 1.15 ± 0.07 | 1.15 ± 0.07 | 1.15 ± 0.07 | 1.15 ± 0.07 | 1.14 ± 0.07 |
| CCCOCCC [dipropyl ether] + CCCC[P+](CC)(CCCC)CCCC.CCOP(=O)([O-])OCC | 2.59 ± 0.18 | 2.55 ± 0.17 | 2.51 ± 0.17 | 2.47 ± 0.17 | 2.43 ± 0.17 |
| C=Cc1ccccc1 [styrene] + CCCC[P+](CC)(CCCC)CCCC.CCOP(=O)([O-])OCC | 0.971 ± 0.061 | 0.975 ± 0.061 | 0.98 ± 0.061 | 0.983 ± 0.062 | 0.987 ± 0.062 |
| C=CCCCCCC [oct-1-ene] + CCCC[P+](CC)(CCCC)CCCC.CCOP(=O)([O-])OCC | 3.68 ± 0.25 | 3.6 ± 0.25 | 3.52 ± 0.24 | 3.45 ± 0.23 | 3.39 ± 0.23 |
| CO [methanol] + CCCC[P+](CC)(CCCC)CCCC.CCOP(=O)([O-])OCC | – | 0.022 | 0.025 | 0.028 | 0.03 |
| CC#N [acetonitrile] + CCCC[P+](CC)(CCCC)CCCC.CCOP(=O)([O-])OCC | 0.464 ± 0.036 | 0.465 ± 0.036 | 0.467 ± 0.036 | 0.468 ± 0.037 | 0.469 ± 0.037 |
| CCOCC [diethyl ether] + CCCC[P+](CC)(CCCC)CCCC.CCOP(=O)([O-])OCC | 1.79 ± 0.12 | 1.77 ± 0.12 | 1.75 ± 0.12 | 1.73 ± 0.12 | 1.71 ± 0.11 |
